Measurements: ChEMBL document CHEMBL1201862, “PubChem BioAssay data set” (2004)
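Assay format: 96-well plates, 48-hour exposure. GI50 is the concentration that inhibits growth by half.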 Active and inactive are the calls of the source. Cut-off read from the data, not from the text of the source: active = GI50 up to about 1.1 µM and inactive = higher.

Assays:
Experiment in all cases: NCI tumour cell line growth inhibition, 48 h
T47D = test system: T47D
COLO 205 = test system: COLO 205
HOP-62 = test system: HOP-62
BT-549 = test system: BT-549
RXF 393 = test system: RXF 393
EKVX = test system: EKVX
NCI/ADR-RES = test system: NCI/ADR-RES
NCI-H23 = test system: NCI-H23
MDA-MB-435 = test system: MDA-MB-435
CCRF-CEM = test system: CCRF-CEM
HT-29 = test system: HT-29
LOX IMVI = test system: LOX IMVI
OVCAR-3 = test system: OVCAR-3
OVCAR-5 = test system: OVCAR-5
OVCAR-8 = test system: OVCAR-8
UACC-62 = test system: UACC-62
786-0 = test system: 786-0
MOLT-4 = test system: MOLT-4
KM12 = test system: KM12
SR = test system: SR

Measured: GI50

COc1ccc2c(c1)/C(=C\c1c(-c3ccccc3)nc3n1CCS3)C(=O)N2
inactive: T47D 7.5 µM | COLO 205 3.27 µM | HOP-62 10.5 µM | BT-549 9.51 µM | RXF 393 13.6 µM | EKVX 12.8 µM | NCI/ADR-RES 4.5 µM | NCI-H23 11.5 µM | MDA-MB-435 1.53 µM | CCRF-CEM 4.1 µM | HT-29 3.71 µM | LOX IMVI 7.64 µM | OVCAR-3 3.82 µM | OVCAR-5 14.8 µM | OVCAR-8 14.6 µM | UACC-62 4.83 µM | 786-0 11.9 µM | MOLT-4 2.78 µM | KM12 3.33 µM

CC(=O)NC(C)(C)C1CC=C(C)/C(=N\O)C1 (centres undefined)
inactive: T47D > 100 µM | SR > 100 µM | COLO 205 > 100 µM | HOP-62 > 100 µM | BT-549 > 100 µM | EKVX > 100 µM | NCI-H23 > 100 µM | MDA-MB-435 > 100 µM | CCRF-CEM > 100 µM | HT-29 > 100 µM | LOX IMVI > 100 µM | OVCAR-3 > 100 µM | OVCAR-5 > 100 µM | OVCAR-8 > 100 µM | UACC-62 > 100 µM | 786-0 > 100 µM | MOLT-4 > 100 µM | KM12 > 100 µM

CC(=O)Nc1nnc(S(C)(=O)=O)s1
inactive: SR > 100 µM | COLO 205 > 100 µM | HOP-62 > 100 µM | BT-549 > 100 µM | RXF 393 > 100 µM | EKVX > 100 µM | NCI/ADR-RES > 100 µM | NCI-H23 > 100 µM | MDA-MB-435 > 100 µM | CCRF-CEM > 100 µM | HT-29 > 100 µM | OVCAR-3 > 100 µM | OVCAR-5 > 100 µM | OVCAR-8 > 100 µM | 786-0 > 100 µM | MOLT-4 > 100 µM | KM12 > 100 µM

C=C(C)COc1cc(/N=C(/S)OC(C)C)ccc1Cl
inactive: T47D 13.3 µM | COLO 205 16.3 µM | BT-549 10.8 µM | EKVX 11.8 µM | NCI/ADR-RES 15.2 µM | NCI-H23 16.1 µM | MDA-MB-435 15.2 µM | CCRF-CEM 13.5 µM | HT-29 14.4 µM | LOX IMVI 16.3 µM | OVCAR-3 15.8 µM | OVCAR-5 15.7 µM | OVCAR-8 16.2 µM | UACC-62 17.3 µM | 786-0 16.6 µM | MOLT-4 12.1 µM | KM12 20.2 µM

COC(=O)C1CCC(=O)N1C(c1ccc(OC)cc1)c1cc(OC)c(OC)c(OC)c1 (centres undefined)
inactive: T47D > 100 µM
active: SR 0.18 µM | COLO 205 0.292 µM | HOP-62 0.378 µM | RXF 393 0.0545 µM | NCI/ADR-RES 0.258 µM | NCI-H23 0.553 µM | MDA-MB-435 0.057 µM | CCRF-CEM 0.311 µM | HT-29 0.255 µM | LOX IMVI 0.356 µM | OVCAR-3 0.261 µM | OVCAR-5 0.592 µM | OVCAR-8 0.348 µM | UACC-62 0.163 µM | 786-0 0.507 µM | MOLT-4 0.39 µM | KM12 0.146 µM

CSc1c([S+](C)[O-])c2ccccc2n1C (centres undefined)
inactive: T47D > 100 µM | SR > 100 µM | COLO 205 > 100 µM | HOP-62 > 100 µM | RXF 393 > 100 µM | EKVX > 100 µM | NCI/ADR-RES > 100 µM | NCI-H23 > 100 µM | MDA-MB-435 > 100 µM | CCRF-CEM > 100 µM | HT-29 > 100 µM | LOX IMVI > 100 µM | OVCAR-3 > 100 µM | OVCAR-5 > 100 µM | OVCAR-8 > 100 µM | UACC-62 > 100 µM | 786-0 > 100 µM | MOLT-4 > 100 µM | KM12 > 100 µM

CNC(=S)c1nnsc1N
inactive: T47D 2.03 µM | HOP-62 > 100 µM | BT-549 > 100 µM | RXF 393 > 100 µM | EKVX > 100 µM | NCI/ADR-RES > 100 µM | NCI-H23 > 100 µM | MDA-MB-435 > 100 µM | CCRF-CEM > 100 µM | LOX IMVI > 100 µM | OVCAR-5 > 100 µM | OVCAR-8 > 100 µM | UACC-62 > 100 µM | 786-0 > 100 µM | MOLT-4 > 100 µM | KM12 11.6 µM
active: COLO 205 0.043 µM | OVCAR-3 0.479 µM

C[n+]1c(/C=C/c2ccc(/C=N/NC(=O)c3ccc(C(=O)N/N=C/c4ccc(/C=C/c5cn6ccccc6[n+]5C)cc4)cc3)cc2)cn2ccccc21
inactive: T47D > 100 µM | COLO 205 98.4 µM | HOP-62 > 100 µM | BT-549 > 100 µM | EKVX > 100 µM | NCI/ADR-RES > 100 µM | NCI-H23 > 100 µM | MDA-MB-435 > 100 µM | CCRF-CEM 20 µM | HT-29 > 100 µM | LOX IMVI > 100 µM | OVCAR-3 > 100 µM | OVCAR-5 > 100 µM | OVCAR-8 > 100 µM | 786-0 16.6 µM | MOLT-4 30.9 µM | KM12 > 100 µM

C[C@]12CC[C@@H]3c4cc(Br)c(O)c(Br)c4CC[C@H]3[C@@H]1CC(Br)C2=O (some centres undefined)
inactive: T47D 4.65 µM | COLO 205 7.87 µM | BT-549 5 µM | RXF 393 2.51 µM | EKVX 13.2 µM | NCI/ADR-RES 4.63 µM | MDA-MB-435 4.13 µM | CCRF-CEM 1.71 µM | HT-29 3.26 µM | LOX IMVI 3.57 µM | OVCAR-3 2.58 µM | OVCAR-5 22.1 µM | OVCAR-8 2.54 µM | UACC-62 3.59 µM | 786-0 4.24 µM | MOLT-4 2.53 µM | KM12 3.57 µM

CNC(=O)CCCNC(=O)CCCC(=O)OC
inactive: T47D > 100 µM | COLO 205 > 100 µM | HOP-62 > 100 µM | BT-549 > 100 µM | EKVX > 100 µM | NCI/ADR-RES > 100 µM | NCI-H23 > 100 µM | MDA-MB-435 > 100 µM | CCRF-CEM > 100 µM | HT-29 > 100 µM | LOX IMVI > 100 µM | OVCAR-3 > 100 µM | OVCAR-5 > 100 µM | OVCAR-8 > 100 µM | UACC-62 > 100 µM | 786-0 > 100 µM | MOLT-4 > 100 µM | KM12 > 100 µM

S=C(c1c[nH]c2ccccc12)N1CCOCC1
inactive: SR > 100 µM | COLO 205 > 100 µM | HOP-62 > 100 µM | BT-549 > 100 µM | RXF 393 > 100 µM | EKVX 43.1 µM | NCI/ADR-RES > 100 µM | NCI-H23 > 100 µM | MDA-MB-435 > 100 µM | CCRF-CEM > 100 µM | HT-29 > 100 µM | LOX IMVI > 100 µM | OVCAR-3 > 100 µM | OVCAR-5 > 100 µM | OVCAR-8 > 100 µM | UACC-62 > 100 µM | 786-0 > 100 µM | MOLT-4 > 100 µM | KM12 > 100 µM

CCOC(=O)C(Cc1ccc2c(c1)CCC2)(Cc1ccc2c(c1)CCC2)C(=O)OCC
inactive: T47D 34.2 µM | SR 19 µM | HOP-62 > 100 µM | RXF 393 23.4 µM | EKVX 17.4 µM | NCI/ADR-RES > 100 µM | NCI-H23 98.4 µM | MDA-MB-435 44.6 µM | CCRF-CEM 32.2 µM | HT-29 30.5 µM | LOX IMVI 71.1 µM | OVCAR-3 26.1 µM | OVCAR-5 > 100 µM | OVCAR-8 > 100 µM | 786-0 94.2 µM | MOLT-4 23.6 µM

NC(=O)N/N=C(\Cc1nc2ccc(Cl)cc2nc1O)C(=O)Nc1ccc(Cl)cc1Cl
inactive: T47D > 100 µM | COLO 205 > 100 µM | BT-549 > 100 µM | EKVX 10.6 µM | NCI/ADR-RES > 100 µM | NCI-H23 > 100 µM | MDA-MB-435 > 100 µM | CCRF-CEM > 100 µM | HT-29 > 100 µM | LOX IMVI > 100 µM | OVCAR-3 > 100 µM | OVCAR-5 > 100 µM | OVCAR-8 > 100 µM | UACC-62 > 100 µM | 786-0 > 100 µM | MOLT-4 > 100 µM | KM12 > 100 µM

c1cc(NNc2cccc(-c3nnn[nH]3)c2)cc(-c2nnn[nH]2)c1
inactive: T47D > 100 µM | COLO 205 > 100 µM | HOP-62 > 100 µM | BT-549 > 100 µM | RXF 393 > 100 µM | EKVX > 100 µM | NCI/ADR-RES > 100 µM | NCI-H23 > 100 µM | MDA-MB-435 > 100 µM | HT-29 > 100 µM | LOX IMVI > 100 µM | OVCAR-3 > 100 µM | OVCAR-5 > 100 µM | OVCAR-8 > 100 µM | UACC-62 > 100 µM | 786-0 > 100 µM | KM12 > 100 µM

CCN(CC)c1c(-c2c(N(CC)CC)c(OC(C)=O)c3sccn3c2=O)c(=O)n2ccsc2c1OC(C)=O
inactive: COLO 205 > 100 µM | HOP-62 21.3 µM | BT-549 32 µM | EKVX > 100 µM | NCI/ADR-RES 49.5 µM | NCI-H23 > 100 µM | MDA-MB-435 > 100 µM | CCRF-CEM > 100 µM | HT-29 > 100 µM | LOX IMVI > 100 µM | OVCAR-3 > 100 µM | OVCAR-5 > 100 µM | OVCAR-8 33 µM | UACC-62 81.7 µM | 786-0 22.5 µM | MOLT-4 > 100 µM | KM12 > 100 µM
